Experimental data: ChEMBL document CHEMBL3046395, “Synthesis and pharmacological investigation of novel 3-(benzyl)-2-substituted amino-3H-quinazolin-4-ones as analgesic and anti-inflammatory agents” (Med Chem Res, 2008)

Legend:
Rattus norvegicus [1] = assay: Anti-inflammatory activity in Rattus norvegicus (rat) assessed as inhibition of carrageenan-induced paw edema at 10 mg/kg, po measured at 3 hr post carrageenan-challenge (reference value: 3.2 +/- 0.93%); type: functional
Rattus norvegicus [2] = assay: Anti-inflammatory activity in Rattus norvegicus (rat) assessed as inhibition of carrageenan-induced paw edema at 20 mg/kg, po measured at 1 hr post carrageenan-challenge (reference value: 6.1 +/- 0.27%); type: functional
Rattus norvegicus [3] = assay: Anti-inflammatory activity in Rattus norvegicus (rat) assessed as inhibition of carrageenan-induced paw edema at 10 mg/kg, po measured at 30 min post carrageenan-challenge (reference value: 5.1 +/- 0.29%); type: functional; details: 0.5 h
Rattus norvegicus [4] = assay: Anti-inflammatory activity in Rattus norvegicus (rat) assessed as inhibition of carrageenan-induced paw edema at 20 mg/kg, po measured at 2 hr post carrageenan-challenge (reference value: 5.7+/- 0.32%); type: functional
Rattus norvegicus [5] = assay: Anti-inflammatory activity in Rattus norvegicus (rat) assessed as inhibition of carrageenan-induced paw edema at 20 mg/kg, po measured at 3 hr post carrageenan-challenge (reference value: 3.2 +/- 0.93%); type: functional
Rattus norvegicus [6] = assay: Anti-inflammatory activity in Rattus norvegicus (rat) assessed as inhibition of carrageenan-induced paw edema at 10 mg/kg, po measured at 2 hr post carrageenan-challenge (reference value: 5.7+/- 0.32%); type: functional
Rattus norvegicus [7] = assay: Anti-inflammatory activity in Rattus norvegicus (rat) assessed as inhibition of carrageenan-induced paw edema at 10 mg/kg, po measured at 1 hr post carrageenan-challenge (reference value: 6.1 +/- 0.27%); type: functional
Mus musculus [8] = assay: Analgesic activity in Mus musculus Wistar albino (mouse) at 10 mg/kg, po after 2 hr by tail-flick test (reference value: 4 +/- 0.59%); type: functional
Mus musculus [9] = assay: Analgesic activity in Mus musculus Wistar albino (mouse) at 20 mg/kg, po after 3 hr by tail-flick test (reference value: 4 +/- 0.91%); type: functional
Rattus norvegicus [10] = assay: Anti-inflammatory activity in Rattus norvegicus (rat) assessed as inhibition of carrageenan-induced paw edema at 20 mg/kg, po measured at 30 min post carrageenan-challenge (reference value: 5.1 +/- 0.29%); type: functional; details: 0.5 h
Mus musculus [11] = assay: Analgesic activity in Mus musculus Wistar albino (mouse) at 20 mg/kg, po after 2 hr by tail-flick test (reference value: 4 +/- 0.59%); type: functional
Rattus norvegicus [12] = assay: Gastrointestinal toxicity in Rattus norvegicus Wistar albino (rat) assessed as ulcer index at 20 mg/kg, ip administered QD for 3 days measured on day 4 (reference value: 0.15 +/- 0.32); type: organism-based; set-up: dose 20 mg/kg, route intraperitoneal; details: in vivo, 72 h
Mus musculus [13] = assay: Analgesic activity in Mus musculus Wistar albino (mouse) at 20 mg/kg, po after 1 hr by tail-flick test (reference value: 6 +/- 0.49%); type: functional
Mus musculus [14] = assay: Analgesic activity in Mus musculus Wistar albino (mouse) at 10 mg/kg, po after 3 hr by tail-flick test (reference value: 4 +/- 0.91%); type: functional
Mus musculus [15] = assay: Analgesic activity in Mus musculus Wistar albino (mouse) at 10 mg/kg, po after 30 min by tail-flick test (reference value: 2 +/- 0.35%); type: functional
Mus musculus [16] = assay: Analgesic activity in Mus musculus Wistar albino (mouse) at 10 mg/kg, po after 1 hr by tail-flick test (reference value: 6 +/- 0.49%); type: functional
Mus musculus [17] = assay: Analgesic activity in Mus musculus Wistar albino (mouse) at 20 mg/kg, po after 30 min by tail-flick test (reference value: 2 +/- 0.35%); type: functional

| SMILES | inhibition in vivo at 10 mg/kg (Rattus norvegicus [1]) [%] | inhibition in vivo at 20 mg/kg (Rattus norvegicus [2]) [%] | inhibition in vivo at 10 mg/kg (Rattus norvegicus [3]) [%] | inhibition in vivo at 20 mg/kg (Rattus norvegicus [4]) [%] | inhibition in vivo at 20 mg/kg (Rattus norvegicus [5]) [%] | inhibition in vivo at 10 mg/kg (Rattus norvegicus [6]) [%] | inhibition in vivo at 10 mg/kg (Rattus norvegicus [7]) [%] | Activity (Mus musculus [8]) [%] | Activity (Mus musculus [9]) [%] | inhibition in vivo at 20 mg/kg (Rattus norvegicus [10]) [%] | Activity (Mus musculus [11]) [%] | UI (Rattus norvegicus [12]) | Activity (Mus musculus [13]) [%] | Activity (Mus musculus [14]) [%] | Activity (Mus musculus [15]) [%] | Activity (Mus musculus [16]) [%] | Activity (Mus musculus [17]) [%] |
| --- | --- | --- | --- | --- | --- | --- | --- | --- | --- | --- | --- | --- | --- | --- | --- | --- | --- |
| O=c1c2ccccc2nc(N/N=C/c2ccccc2[N+](=O)[O-])n1Cc1ccccc1 | 21 | 43 | 30 | 47 | 28 | 38 | 36 | 46 | 38 | 43 | 57 | 0.87 | 56 | 32 | 37 | 44 | 49 |
| O=c1c2ccccc2nc(N/N=C/c2ccc([N+](=O)[O-])cc2)n1Cc1ccccc1 | 24 | 45 | 31 | 49 | 31 | 37 | 31 | 42 | 39 | 42 | 54 | 0.82 | 48 | 34 | 38 | 42 | 46 |
| COc1ccc(/C=N/Nc2nc3ccccc3c(=O)n2Cc2ccccc2)cc1 | 25 | 40 | 28 | 44 | 30 | 37 | 30 | 44 | 37 | 35 | 56 | 0.83 | 52 | 32 | 39 | 40 | 49 |
| Cc1ccccc1/C=N/Nc1nc2ccccc2c(=O)n1Cc1ccccc1 | 28 | 47 | 39 | 51 | 36 | 45 | 42 | 48 | 39 | 45 | 59 | 0.66 | 58 | 32 | 44 | 48 | 52 |
| Cc1ccc(/C=N/Nc2nc3ccccc3c(=O)n2Cc2ccccc2)cc1 | 29 | 49 | 38 | 53 | 38 | 42 | 38 | 54 | 40 | 46 | 61 | 0.65 | 59 | 35 | 47 | 49 | 58 |
| O=c1c2ccccc2nc(NN=C(c2ccccc2)c2ccccc2)n1Cc1ccccc1 | 27 | 50 | 36 | 52 | 35 | 43 | 41 | 49 | 41 | 47 | 59 | 0.63 | 58 | 33 | 46 | 49 | 55 |
| CCN(CC)C(=S)Nn1c(-c2ccccc2)nc2ccccc2c1=O | – | – | – | 53 | – | 38 | – | 44 | – | – | 58 | – | – | – | – | – | – |
| Cc1nc2ccccc2c(=O)n1NC(=S)n1cccc1 | – | – | – | 60 | – | 44 | – | 50 | – | – | 65 | – | – | – | – | – | – |
